Assays:
[1] = test system: pancreatic islets of WT mice; test: Quantification of islets and hormone-expressing cells in GABA-treated WT mice (immunohistochemistry, pixel counting); assay type: in vivo, mouse; settings: versus aged-matched controls; for Glucagon+ cell count / Somatostatin+ cell count / Insulin+ cell count: pixel counting; for Insulin+ cell count / Islet count / Islet size: mean ± SEM; for Islet count / Islet size: treatment age 2.6 m
Protocol: (§1) Immunohistochemistry: Tissues were fixed in 4% PFA for 30 min at 4° C., embedded in paraffin and 8 μm sections applied to slides. These sections were assayed as described previously [Collombat et al., 2003]. The primary antibodies used were the following: guinea pig polyclonal anti-insulin (1/500-Linco), anti-glucagon (1/500-Milipore), mouse monoclonal anti-glucagon (1/500-Sigma), anti-BrdU (1/40-Roche), anti-E-cadherin (1/200-BD Transduction Lab), rat anti-somatostatin (1/250-Millipore), rabbit anti-Glut2 (1/5000), anti-PC1/3 (1/500-Milipore), anti-Nkx6.1 (1/3000-Novonordisk), anti-Pdx1 (1/1000), anti-NeuroD1 (1/200-Milipore), anti-Ngn3 (1/500-Abgent), anti-β-galactosidase (1/10000-Milipore), chicken anti vimentin (1/5000-Milipore), goat anti-osteopontin (1/200-R&D Systems). The secondary antibodies (1/1000-Molecular Probes) used were: 594- and 488-alexa anti-mouse; 594- and 488-alexa anti-rabbit; 594- and 488-alexa anti-guinea pig; 488-alexa anti-rat; 594- and 488-alexa anti-goat; 594- and 488-alexa anti-chicken. Pictures were processed using ZEISS Axioimager Z1 and LEICA DM 6000 B. For quantification purpose, stained cells were counted manually on every tenth section.
Cell counts: Quantitative analyses were performed by the counting of colored pixels on (immuno-) stained sections of pancreas using the Photoshop software. Specifically, every 10th section was processed using the same settings for all animals and genotypes.

[2] = test system: WT mice; test: Streptozotocin-mediated diabetes in WT mice treated with GABA; assay type: in vivo, mouse
Source text: (§2) FIG. 4: The β-like cell mass can be regenerated following streptozotocin treatment in GABA-treated mice, the neo-generated insulin^+ cells being functional. […] Such a recovery is associated with a clear regeneration of their β-cell mass monitored 5, 10, 25 and 45 days post-streptozotocin administration by immunochemistry. 85 days post-streptozotocin injection, GABA- and STZ-treated WT and non-treated controls were subjected to a glucose tolerance test (GTT) (B).
Induction of streptozotocin-mediated diabetes: To induce hyperglycaemia, STZ (Sigma) was dissolved in 0.1M sodium citrate buffer (pH 4.5), and a single dose was administered intraperitoneally (100 mg/kg) within 10 min of dissolution. Diabetes progression was assessed by the monitoring of blood glucose levels of the mice.
A functional β-cell mass can be regenerated following chemically-induced diabetes in GABA-treated animals: To determine whether neo-formed insulin^+ cells could functionally replace endogenous β-cells, we injected WT animals with a high dose of streptozotocin to obliterate the endogenous β-cell mass.

[3] = test system: WT mice; test: Glucose tolerance test in GABA- and STZ-treated WT mice; assay type: in vivo, mouse; settings: surviving GABA-treated mice, 85 days post-streptozotocin, versus controls not treated with GABA or streptozotocin
Source text: as §2

[4] = test system: Arx mRNA in α-TC1-6 cells; test: Relative Arx mRNA expression in α-TC1-6 cells treated with GABA; assay type: cell-based; settings: α-TC1-6 cell line, increasing GABA concentrations, different periods of time, versus non-treated cells
Protocol: Relative Arx mRNA expression was measured in the different conditions.
RNA Analysis: RNA was isolated (RNEASY® (RNA isolation kit), Qiagen) and cDNA synthesis ([…]® (cDNA synthesis kit) choice system, Invitrogen) was performed according to the manufacturer's instructions. Quantitative RT-PCR was carried out using validated primers (Qiagen) and the […]® SYBR Green RT-PCR Kit (Qiagen) following manufacturer's instructions. PCR reactions and detection were performed on a […]® ep realplex cycler using GAPDH and HPRT1 as internal controls for normalization purposes.

[5] = test system: insulin+ cells; test: Endocrine cell marker expression of insulin+ cells in GABA-treated pancreata (immunochemistry); assay type: in vivo, mouse; settings: GABA-treated islets versus non-treated controls; Pdx1, Nkx6.1, NeuroD1, Glut 2, PC1/3, Pax6
Protocol: as §1
To ascertain the identity of the insulin^+ cells in GABA-treated pancreata, we assayed the expression of several endocrine cell marker genes by immunochemistry compared to non-treated controls. […]

[6] = test system: glucagon-expressing cells; test: β-galactosidase lineage tracing in Glu-Cre::Rosa26-lox-β-gal mice treated with streptozotocin and GABA; assay type: in vivo, mouse; settings: isolated 40 days post-streptozotocin injection, daily GABA
Protocol: β-galactosidase-based lineage-tracing experiments: Pancreatic tissues were isolated and fixed for 30 min at 4° C. in a solution containing 1% formaldehyde, 0.2% glutaraldehyde, 0.02% NP40. The tissues were dehydrated in 25% sucrose overnight at 4° C. Prior to sectioning, tissues were embedded in freezing medium. For β-galactosidase activity assessment, the tissues were washed in PBS and then incubated overnight in staining solution (500 mM K3Fe(CN)6, 250 mM K4Fe(CN)6, 0.5M MgCl2, 40 mg/ml X-gal in DMF).
Several examples, from unrelated islets, of cells co-expressing insulin with glucagon were noted. […] To validate this hypothesis, we used Glu-Cre::Rosa26-lox-β-gal mice. […] It is important to note that such double-positive cells (in lesser proportion) are also observed in GABA-treated Glu-Cre::Rosa26-lox-β-gal animals not subjected to streptozotocin administration.

[7] = test system: pancreatic cells of WT mice; test: BrdU cell proliferation in GABA-treated WT mice; assay type: in vivo, mouse
Source text: Thus, to gain further insight into the mechanisms underlying these processes, we administered the thymidine analogue 5-bromo-2′-deoxyuridine (BrdU) to detect actively replicating cells. […] In addition, glucagon^+ and somatostatin^+ cells were not uniformly distributed within the islet mantle but rather found clustered at a pole of the islet, adjacent to neighboring ducts, unlike in controls where the distribution of the non-β-cells were found scattered in the mantle of the islets.

[8] = test system: Ngn3; test: Ngn3 immunohistochemistry in GABA-treated pancreata; assay type: in vivo, mouse; settings: no Ngn3 expression in control animals
Protocol: as §1, with “section. […]” for “section.”

[9] = test system: mice; settings: streptozotocin-induced diabetes in mice (Soltani et al., 2011; Gomez et al., 2007); cited from earlier work
[10] = test system: NOD mice; settings: NOD mice (Soltani et al., 2011; Tian et al., 2011); cited from earlier work
[11] = Life expectancy, basal glycemia and general health of GABA-treated WT mice

With `NCCCC(=O)O` [GABA, gamma-amino butyric acid] the “Glucagon+ cell count” value ([1]; GABA 1 month) was “x 0.97”, the “Somatostatin+ cell count” value ([1]; GABA 1 month) was “x 1.43” and the “Insulin+ cell count” value ([1]; GABA 1 month) was “x 1.04 ± 0.15”. For the same compound, the Islet count ([1]; GABA 1 month) was “x 2.19 ± 0.04”, the Islet size ([1]; GABA 1 month) was “x 1.04 ± 0.15” and the “Glucagon+ cell count” value ([1]; GABA 2 months) was “x 1.91”. The “Somatostatin+ cell count” value ([1]; GABA 2 months) was “x 2.39”, the “Insulin+ cell count” value ([1]; GABA 2 months) was “x 2.15 ± 0.22” and the Islet count ([1]; GABA 2 months) was “x 1.86 ± 0.05”. The Islet size ([1]; GABA 2 months) was “x 2.15 ± 0.22”, the “Glucagon+ cell count” value ([1]; GABA 3 months) was “x 3.02” and the “Somatostatin+ cell count” value ([1]; GABA 3 months) was “x 2.84”. For the same compound, the “Insulin+ cell count” value ([1]; GABA 3 months) was “x 3.49 ± 0.11”, the Islet count ([1]; GABA 3 months) was “x 1.80 ± 0.03” and the Islet size ([1]; GABA 3 months) was “x 3.49 ± 0.11”. For the same compound, the “Regeneration of insulin+ cells after β-cell loss” value ([2]; GABA-treated WT animals after streptozotocin, immunohistochemistry at different time points) was “progressively regenerated”, the “Glycemia course after streptozotocin” value ([2]; WT mice, high dose STZ, GABA started at approximately 300 mg/dl, water controls died from extreme hyperglycemia) was “steady recovery” and the “Sensitivity to another round of streptozotocin” value ([2]; surviving GABA-treated mice, data not shown) was “not sensitive to STZ”. For the same compound, the “Response to glucose challenge” value [3] was “improved response with a lower raise in glycemia and a faster return to euglycemia”, the “Arx mRNA expression” value [4] was “decrease in Arx mRNA expression” and the “Expression of β-cell markers in insulin-expressing cells” value [5] was “uniformly expressed the bona fide β-cell markers”. For the same compound, the “Insulin and β-galactosidase co-labelling (conversion of glucagon-expressing cells)” value [6] was “a majority of cells positive for insulin and β-galactosidase”, the “Location of BrdU+ proliferating cells” value ([7]; GABA-treated WT pancreata, BrdU for 10 days) was “predominantly located in the ductal lining and in the ductal epithelium” and the β-cell proliferation ([7]; GABA-treated mice, relative to the size of the islets, data not shown) was “lack of a significant increase in β-cell proliferation”. The Ngn3 expression [8] was “reactivation of Ngn3 in the ductal environment”, the Blood glucose levels [9] was “decrease blood glucose levels” and the Diabetes reversal [10] was “reverse diabetes”. For the same compound, the “Viability, health and fertility of treated animals” value ([11]; GABA-treated WT mice) was “viable, healthy and fertile”, the Life expectancy ([11]; WT mice, GABA treatment duration 1 month, treatment age 2.6 m) was “normal” and the Life expectancy ([11]; WT mice, GABA treatment duration 2 months, treatment age 2.6 m) was “normal”. The Life expectancy ([11]; WT mice, GABA treatment duration 3 months, treatment age 2.6 m) was “normal” and the Basal glycemia ([11]; WT mice, GABA treatment duration 3 months, treatment age 2.6 m, monitored weekly) was 142.

From patent US9708608B2, “Methods for producing a population of pancreatic beta-cells” (priority 2012, dated 2017)
